Non-standard residues stand in square brackets, D forms with d. Residues, ends and D or L forms follow the SMILES beside them. *: point of attachment. X1 = CN(C)c1ccc2c(c1)Oc1cc(N(C)C)ccc1C21OC(=O)c2cc(NC(=S)*)ccc21; pT = C[C@@H](OP(=O)(O)O)[C@H](N)C(=O)O; pS = N[C@@H](COP(=O)(O)O)C(=O)O
Assays:
Pin1 PPIase domain = target: T1, Pin1 PPIase domain (Homo sapiens, UniProt Q13526); test: Fluorescence anisotropy binding of rhodamine-labeled peptides to isolated Pin1 PPIase domain
T1 construct: the PPIase domain includes residues 50–163 of Pin1
T1 sequence (Q13526 50-163): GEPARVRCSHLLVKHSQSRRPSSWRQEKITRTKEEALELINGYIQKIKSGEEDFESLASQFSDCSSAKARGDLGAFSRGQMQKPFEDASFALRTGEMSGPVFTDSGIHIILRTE
Experimental: Protein purification and crystallography. His8-tagged Pin1 was expressed and purified by Ni^+2-chelation chromatography, the histidine tag was removed by thrombin digestion, and the protein purified as described in Ranganathan et al., Cell 89:875–886, 1997. All site-directed mutants were constructed using the QuikChange (Stratagene) protocol and purified like wild type Pin1. Crystals of the Pin1-YpSPTpSPS complex were grown in hanging drops at 4° C. by mixing 1.0 μl of the Pin1-peptide complex with 1.0 μl of a reservoir solution containing 100 mM MOPSO-Na^+ (pH 7.0), 28% (v/v) PEG 8000, 2 mM DTT, stabilized in 100 mM MOPSO-Na^+ (pH 7.0), 25% (v/v) PEG 8000, 20% (v/v) glycerol, 1 mM DTT, and rapidly frozen in a 100 K stream of nitrogen gas. A native data set extending to 1.84 Å resolution was collected at the Stanford Synchrotron Radiation Laboratory, beamline 9-1 (λ=0.98 Å). Data were processed with DENZO and scaled with […] (Otwinowski, Z., Minor, W. Meth. Enzymol. 276:307–326, 1997). The crystals contain one Pin1-peptide complex per asymmetric unit and belong to space group P212121 (a=35.27 Å, b=43.90 Å, c=124.66 Å, α=β=γ=90°). The final data set with an overall R merge of 6.2% (R merge=33.7% in the highest resolution shell) is 97.3% complete (98.2% in the highest resolution shell) for the resolution range of 62.02 Å to 1.84 Å. The structure of the Pin1-YpSPTpSPS repeat complex was solved by molecular replacement with AMORE (Navaza, J. Acta Crystallogr. A 50:157–163, 1994) using the Pin1 monomer as a starting model (Ranganathan et al., Cell 89:875–886, 1997). The resulting model was then positionally refined against all the data between 62.02 Å and 1.84 Å using the default bulk solvent model in CNS with maximum likelihood targets (Brunger et al., Acta Crystallogr. D 54:905–921, 1998). After refining the rebuilt model, water molecules were added automatically using CNS and edited manually in O. The final positional refinement converged to a crystallographic R factor of 24% (R free=27%) for all data (17107 reflections) between 62.02 Å and 1.84 Å. This model consists of residues 1 to 38 and 51 to 163 of human Pin1, the entire phosphopeptide, and 151 water molecules. Model quality was checked with PROCHECK (Laskowski et al., J. Appl. Crystallogr. 26:283–291, 1993). A total of 91.7% of the residues are in the most favored regions of the Ramachandran plot, 6.8% in the additional allowed region, and 0.8% in the generously allowed region. Glu-5 borders the generously allowed region.
Binding Analysis. […] These peptides were derived from proteins previously shown to interact with Pin1. While the set of peptides examined is limited, a consensus emerges from comparison of the highest affinity interactions. Lyophilized peptides were dissolved in 25 mM HEPES-Na^+ (pH 7.5), 100 mM NaCl, 1 mM DTT and stored for short periods of time at −20° C. […] Fluorescence data were collected on a PTI Alphascan spectrofluorimeter (Photon Technology Instruments, Santa Clara, Calif.). Dissociation equilibrium constants for Pin1-peptide complexes were determined by measuring the change in fluorescence anisotropy of a set of peptide solutions at constant concentration of peptide each of which contained varied concentrations of Pin1 using the procedure described previously (Vinson et al., Biochemistry 37:10871–10880, 1998). The core binding element determined from this group of peptides is PXpSP, where X cannot be Gly. […]

Pin1 = target: T2, Pin1 (Homo sapiens, UniProt Q13526); test: Fluorescence anisotropy binding of rhodamine-labeled peptides to full length Pin1; settings: errors are deviations from theoretical binding isotherms
T2 construct: His8 (cleaved yes); made in house; host or cells: E. coli
T2 sequence (Q13526 whole entry): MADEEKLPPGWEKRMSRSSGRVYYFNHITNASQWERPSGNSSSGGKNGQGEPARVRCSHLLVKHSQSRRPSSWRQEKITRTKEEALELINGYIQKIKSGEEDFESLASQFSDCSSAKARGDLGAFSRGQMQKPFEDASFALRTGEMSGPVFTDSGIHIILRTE
Experimental: (§1) Protein purification and crystallography. His8-tagged Pin1 was expressed and purified by Ni^+2-chelation chromatography, the histidine tag was removed by thrombin digestion, and the protein purified as described in Ranganathan et al., Cell 89:875–886, 1997. All site-directed mutants were constructed using the QuikChange (Stratagene) protocol and purified like wild type Pin1. Crystals of the Pin1-YpSPTpSPS complex were grown in hanging drops at 4° C. by mixing 1.0 μl of the Pin1-peptide complex with 1.0 μl of a reservoir solution containing 100 mM MOPSO-Na^+ (pH 7.0), 28% (v/v) PEG 8000, 2 mM DTT, stabilized in 100 mM MOPSO-Na^+ (pH 7.0), 25% (v/v) PEG 8000, 20% (v/v) glycerol, 1 mM DTT, and rapidly frozen in a 100 K stream of nitrogen gas. […]
(§2) Binding Analysis. […] Fluorescence data were collected on a PTI Alphascan spectrofluorimeter (Photon Technology Instruments, Santa Clara, Calif.). Dissociation equilibrium constants for Pin1-peptide complexes were determined by measuring the change in fluorescence anisotropy of a set of peptide solutions at constant concentration of peptide each of which contained varied concentrations of Pin1 using the procedure described previously (Vinson et al., Biochemistry 37:10871–10880, 1998). The core binding element determined from this group of peptides is PXpSP, where X cannot be Gly. […]

Pin1 WW domain = target: T3, Pin1 WW domain (Homo sapiens, UniProt Q13526); test: Fluorescence anisotropy binding of rhodamine-labeled peptides to isolated Pin1 WW domain
T3 construct: The WW domain of Pin1 includes residues 1 to 39
T3 sequence (Q13526 1-39 limits assumed): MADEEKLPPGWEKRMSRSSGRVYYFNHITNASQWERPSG
Experimental: as §1, §2

Row | Molecule | Dissociation equilibrium constants for Pin1-peptide complexes, PPIase (Pin1 PPIase domain) | Dissociation equilibrium constants for Pin1-peptide complexes, Pin1 (Pin1) | Dissociation equilibrium constants for Pin1-peptide complexes, WW (Pin1 WW domain)
1 | C[C@H](NC(=O)[C@@H]1CCCN1C(=O)[C@@H]1CCCN1C(=S)Nc1ccc2c(c1)C(=O)OC21c2ccc(N(C)C)cc2Oc2cc(N(C)C)ccc21)C(=O)N[C@H](C(=O)N1CCC[C@H]1C(=O)N1CCC[C@H]1C(=O)O)[C@@H](C)OP(=O)(O)O [PPApTPP (Myt1-T412), PPApTPP] (X1-PPA[pT]PP-OH) | n.b. | – | –
2 | CN(C)c1ccc2c(c1)Oc1cc(N(C)C)ccc1C21OC(=O)c2cc(NC(=S)N3CCC[C@H]3C(=O)N3CCC[C@H]3C(=O)NCC(=O)N[C@@H](COP(=O)(O)O)C(=O)N3CCC[C@H]3C(=O)N3CCC[C@H]3C(=O)O)ccc21 [PPGpSPP (Myt1-S416), PPGpSPP] (X1-PPG[pS]PP-OH) | n.b. | – | –

More lines, now with the values ahead:

Row | Dissociation equilibrium constants for Pin1-peptide complexes, PPIase (Pin1 PPIase domain) | Dissociation equilibrium constants for Pin1-peptide complexes, Pin1 (Pin1) | Dissociation equilibrium constants for Pin1-peptide complexes, WW (Pin1 WW domain) | Molecule
3 | n.b. | – | – | C[C@@H](O)[C@H](NC(=O)[C@H](CO)NC(=S)Nc1ccc2c(c1)C(=O)OC21c2ccc(N(C)C)cc2Oc2cc(N(C)C)ccc21)C(=O)N[C@@H](CO)C(=O)N[C@H](C(=O)N1CCC[C@H]1C(=O)N[C@@H](CCCNC(=N)N)C(=O)O)[C@@H](C)OP(=O)(O)O [STSpTPR (Myt1-T455), STSpTPR] (X1-STS[pT]PR-OH)
4 | n.b. | n.b. | n.b. | YSPTSPS [YSPTSPS (CTD), unphosphorylated heptad repeat of the C-terminal domain of RNA Polymerase II, rhodamine-labeled]
5 | n.b. | – | – | CC(C)[C@H](NC(=O)[C@@H]1CCCN1C(=O)[C@@H](NC(=O)[C@H](CCCNC(=N)N)NC(=O)[C@@H]1CCCN1C(=O)[C@@H](NC(=S)Nc1ccc2c(c1)C(=O)OC21c2ccc(N(C)C)cc2Oc2cc(N(C)C)ccc21)C(C)C)[C@@H](C)OP(=O)(O)O)C(=O)O [VPRpTPV (Cdc25c-T48), VPRpTPV] (X1-VPR[pT]PV-OH)

Source: patent publication US7127357B1, “Crystal structure of WW domains and methods of use thereof” (The Salk Institute for Biological Studies, priority 2000, dated 2006)
